Assay results as given in ChEMBL document CHEMBL1130990, “High-throughput synthesis and direct screening for the discovery of novel hydrolytic metal complexes” (Bioorg Med Chem Lett, 1998).

Tests used:
[1] = Compound was evaluated for rate enhancement, obtained in the hydrolysis of N-methoxycarbonyl-L-phenylalanine-p-nitrophenylester (Ko = 1.1 x 10 e-3/min); ratio=Kobs/K0; assay type: ADME
[2] = Compound was evaluated for rate enhancement, obtained in the hydrolysis of para-nitrophenyl acetate (Ko = 1.6 x 10 e-4/min); ratio=Kobs/K0; assay type: ADME

SMILES | Ratio [1] | Ratio [2]
COC1COc2ccccc2CNCCNCCNCc2ccccc2OC1.[O-][Cl+3]([O-])([O-])[O][Zn][O][Cl+3]([O-])([O-])[O-] | 3 | 2.4
OC1COc2ccccc2CNCCNCCNCc2ccccc2OC1.[O-][Cl+3]([O-])([O-])[O][Zn][O][Cl+3]([O-])([O-])[O-] | 2.9 | 1.7
[O-][Cl+3]([O-])([O-])[O][Zn][O][Cl+3]([O-])([O-])[O-].c1ccc(OC2COc3ccccc3CNCCNCCNCc3ccccc3OC2)cc1 | 3.9 | 2.5
[O-][Cl+3]([O-])([O-])[O][Zn][O][Cl+3]([O-])([O-])[O-].c1ccc2c(c1)CNCCNCCNCc1ccccc1OCC(Oc1ccc3ccccc3c1)CO2 | 4.7 | 2.9
